From patent US4789630A, “Ionic compounds containing the cationic meriquinone of a benzidine” (Cetus Corporation, priority 1986, dated 1988)
Converted amounts (≈) assume the structure as drawn. One block for each molecule: values may come before it.

Legend:
horseradish peroxidase = molecular target: T1, horseradish peroxidase (Armoracia rusticana, UniProt P00433); assay: Horseradish peroxidase activity with TMB as chromogenic substrate, pH dependence; assay type: biochemical; conditions: from pH 5.0 to pH 4.0
T1 sequence (P00433 31-353): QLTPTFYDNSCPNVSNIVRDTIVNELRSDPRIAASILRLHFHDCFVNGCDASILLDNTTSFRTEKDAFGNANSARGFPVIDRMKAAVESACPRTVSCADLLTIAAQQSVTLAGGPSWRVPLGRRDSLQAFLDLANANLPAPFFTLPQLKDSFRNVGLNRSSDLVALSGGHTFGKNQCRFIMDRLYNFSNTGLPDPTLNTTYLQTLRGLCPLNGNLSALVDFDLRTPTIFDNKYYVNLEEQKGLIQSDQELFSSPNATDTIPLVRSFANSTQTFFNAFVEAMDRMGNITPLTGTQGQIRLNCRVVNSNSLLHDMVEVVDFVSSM
Experimental: (§1) Regarding step (e), three independent variables (apart from temperature) most strongly influence horseradish […] activity with TMB as chromogenic substrate: TMB concentration, H2 O2 concentration, and pH. […] For relatively short assays (0-10 min.), however, suicide is not severe, and initial velocity is the most important indicator of enzyme activity. Initial velocity rises monotonically with TMB concentration, and is almost proportional to TMB concentration at a H2 O2 concentration of greater than 2 mM. The pH dependence of initial velocity at constant TMB concentration indicates an optimum pH at 4. The pH dependence of TMB solubility indicates a monotonic and increasingly steep rise as the pH is lowered from 5. […] Therefore, a pH of 3.5-4.5 is the preferred pH range for step (e), more preferably pH 4.0, if the substituted benzidine is TMB and the oxidation catalyst is horseradish peroxidase. The optimum horseradish peroxidase assay conditions are at room temperature, pH 4.0, 0.4 mM (saturating) TMB, and 2-3 mM H2 O2.

[1] = pH dependence of TMB solubility (saturating TMB); assay type: physicochemical; conditions: room temperature, pH 4.0; read-out: saturating TMB concentration
Experimental: as §1

[2] = molecular target: T2, horseradish peroxidase (HRP) (Armoracia rusticana, UniProt P00433); assay: Kinetics of TMB oxidation by H2O2 and HRP in pH 3.9 fumarate-EDTA buffer; assay type: biochemical; conditions: 0.31 mM TMB, 3.0 mM H2O2, 10 mM Na fumarate, 1 mM EDTA, pH 3.92, 25 C
T2 sequence (P00433 31-353): T1 sequence (P00433 31-353)
Experimental: (§2) Stock HRP solutions were prepared in 0.10M NaCl, 1.0 mM Na phosphate, pH 6.0 to be 22 ng/ml or 0.43 ng/ml in HRP, shortly before assay, HRP-catalyzed oxidation of TMB by H2 O2 was initiated by adding 20 or 2.0 μl of […] or 20 or 10 μl of 0.43 ng/ml HRP to 1.00 ml of the assay solution at 25° C. […] At the two lower HRP concentrations (0.22 and 0.11 pM in the cuvette), the reaction was followed for 30 minutes. At the end of each reaction interval, replicate 100 μl volumes of reaction mixture were spotted on a Nuclepore polycarbonate filter (3 μm pore size) and dried by gentle suction to give deposits 3-4 mm in diameter.
The initial velocity was transformed from units of absorbance per time to reciprocal time (turnover number) by dividing by the meriquinone extinction coefficient, 3.9×10^4 M^-1 cm^-1, and by the HRP concentration. […] The transition time is the time to crystal nucleation. […] The A652 of the 30 minute reaction mixture for 0.11 pM HRP was below 0.03, the approximate visual threshold, so that filtration trapping served to concentrate the signal to improve visibility. […] In addition, a white membrane would offer sharper visual contrast than the slightly yellow, translucent, polycarbonate. The transition time has a very shallow HRP concentration dependence, so that even lower HRP concentrations are unlikely to require assay times longer than 30 minutes in order to permit crystallization to occur. The transition time probably could be lowered by adding anionic latex microspheres which might serve to nucleate crystallization.

[3] = Crystal nucleation and filter trapping of the fumarate salt of the meriquinone of TMB; assay type: physicochemical; conditions: 10 mM Na fumarate, pH 3.92, 25 C
Experimental: as §2, with “the” for “the two lower HRP concentrations (0.22 and 0.11 pM in the cuvette), the reaction was followed for 30 minutes. At the”
The initial velocity was transformed from units of absorbance per time to reciprocal time (turnover number) by dividing by the meriquinone extinction coefficient, 3.9×10^4 M^-1 cm^-1, and by the HRP concentration. […] The transition time is the time to crystal nucleation.

[4] = Solubility of TMB in a series of buffers; assay type: physicochemical; conditions: for solubility: read-out: Solubility at 30.9 C
Experimental: These are stoichiometric concentrations, uncorrected for ionization at pH 5.0. […] Each wash involved a total volume of 1.5 ml (pellet volume of about 0.3 ml) in an Eppendorf polypropylene centrifuge tube. […] At 30-60 min intervals, the crystal suspensions were spun 3-5 min at room temperature in a Fisher micro-centrifuge. […] After scanning, the solutions and pellets were returned to the equilibration tubes for renewed shaking. Repeat measurements were taken until precision within 20% was obtained. […] Care was taken to assure that solid meriquinone salt and solid TMB were present in each tube. Excess (saturating) TMB was added to suppress the dissociation of meriquinone charge-transfer complex into component quinone diimine and TMB (see FIG. 1). […] If the concentration was too high to measure undiluted with a 1 cm light path, the scan was performed on an undiluted sample with a 2 mm light path or an appropriately diluted sample (later discarded) with a 1 cm light path.

[5] = Solubilities of salts of the meriquinone of TMB (equilibration of solid salt with buffer, A650)
Experimental: These are stoichiometric concentrations, uncorrected for ionization at pH 5.0. […] Each wash involved a total volume of 1.5 ml (pellet volume of about 0.3 ml) in an Eppendorf polypropylene centrifuge tube. […] At 30-60 min intervals, the crystal suspensions were spun 3-5 min at room temperature in a Fisher micro-centrifuge. […] After scanning, the solutions and pellets were returned to the equilibration tubes for renewed shaking. Repeat measurements were taken until precision within 20% was obtained. […] Care was taken to assure that solid meriquinone salt and solid TMB were present in each tube. Excess (saturating) TMB was added to suppress the dissociation of meriquinone charge-transfer complex into component quinone diimine and TMB (see FIG. 1). […] These spectra contained absorbance peaks at 370 and 650 nm characteristic of meriquinone and a very small shoulder at 450 nm assigned to quinone diimine; a much larger peak near 280 nm confirmed the presence of excess TMB. […] If the concentration was too high to measure undiluted with a 1 cm light path, the scan was performed on an undiluted sample with a 2 mm light path or an appropriately diluted sample (later discarded) with a 1 cm light path.
Solubilities at 0 C. were determined for all solutions in which they were high enough for accurate measurement.
The dashed lines were visually fitted. […]

Molecule: Cc1cc(-c2cc(C)c(N)c(C)c2)cc(C)c1N [TMB, 3,3',5,5'-tetramethylbenzidine]
- increase of initial velocity at saturating TMB (horseradish peroxidase): four-fold increase
- solubility [1]: 400 µM (≈ 96.1 µg/mL)
- Vinitial ([2]; [HRP] 0.11 x 10^-12 M): 4.4 × 10^-5 WA652 S^-1
- Vinitial ([2]; [HRP] 0.21 x 10^-12 M): 8.0 × 10^-5 WA652 S^-1
- Vinitial ([2]; [HRP] 1.1 x 10^-12 M): 4.1 × 10^-4 WA652 S^-1
- Vinitial ([2]; [HRP] 11 x 10^-12 M): 4.2 × 10^-3 WA652 S^-1
- A652 at Transition ([3]; [HRP] 0.11 x 10^-12 M): 0.025
- Transition Time (time to crystal nucleation) ([3]; [HRP] 0.11 x 10^-12 M): 10 min
- A652 at Transition ([3]; [HRP] 0.21 x 10^-12 M): 0.04
- Transition Time (time to crystal nucleation) ([3]; [HRP] 0.21 x 10^-12 M): 10 min
- A652 at Transition ([3]; [HRP] 1.1 x 10^-12 M): 0.08
- Transition Time (time to crystal nucleation) ([3]; [HRP] 1.1 x 10^-12 M): 3 to 4 min
- A652 at Transition ([3]; [HRP] 11 x 10^-12 M): 0.25-0.50
- Transition Time (time to crystal nucleation) ([3]; [HRP] 11 x 10^-12 M): 1 to 2 min
- Solubility Ratio: 30.9 C/0.0 C ([4]; acetate buffer, pH 5.0, 0.10M): 2.4
- solubility ([4]; aqueous buffer, acetate buffer, pH 5.0, 0.10M): 170 µM (≈ 40.9 µg/mL)
- solubility ([4]; aqueous buffer, citrate buffer, pH 5.0, 0.10M): 170 µM (≈ 40.9 µg/mL)
- solubility ([4]; aqueous buffer, glutarate buffer, pH 5.0, 0.10M): 170 µM (≈ 40.9 µg/mL)
- solubility ([4]; aqueous buffer, maleate buffer, pH 5.0, 0.10M): 210 µM (≈ 50.5 µg/mL)
- solubility ([4]; aqueous buffer, malonate buffer, pH 5.0, 0.10M): 160 µM (≈ 38.5 µg/mL)
- solubility ([4]; aqueous buffer, phosphate buffer, pH 5.0, 0.10M): 160 µM (≈ 38.5 µg/mL)
- Solubility Ratio: 30.9 C/0.0 C ([4]; citrate buffer, pH 5.0, 0.10M): 2.3
- Solubility Ratio: 30.9 C/0.0 C ([4]; fumarate buffer, pH 5.0, 0.10M): 3.9
- solubility ([4]; fumarate buffer, pH 5, aqueous buffer): 160 µM (≈ 38.5 µg/mL)
- Solubility Ratio: 30.9 C/0.0 C ([4]; glutarate buffer, pH 5.0, 0.10M): 2.0
- Solubility Ratio: 30.9 C/0.0 C ([4]; maleate buffer, pH 5.0, 0.10M): 7.6
- Solubility Ratio: 30.9 C/0.0 C ([4]; malonate buffer, pH 5.0, 0.10M): 1.8
- Solubility Ratio: 30.9 C/0.0 C ([4]; oxalate buffer, pH 5.0, 0.10M): 12
- solubility ([4]; oxalate buffer, pH 5, aqueous buffer): 160 µM (≈ 38.5 µg/mL)
- Solubility Ratio: 30.9 C/0.0 C ([4]; phosphate buffer, pH 5.0, 0.10M): 2.0
- Solubility Ratio: 30.9 C/0.0 C ([4]; sulfate buffer, pH 5.0, 0.10M): 1.9
- solubility ([4]; sulfate buffer, pH 5, aqueous buffer): 150 µM (≈ 36.1 µg/mL)

- Solubility Ratio: 25.2 C/0.0 C ([5]; averaged for the different stated concentrations of each salt, buffers pH 5.0 at room temperature): 8.1
- Molar Solubility in 0.1 M Anion ([5]; extrapolated, pH 5.0, 10% ethanol, 0.10M sodium acetate, 25.2 C): 4 × 10^-8 Molar
Molecule: Maleate
